Measured values taken from publication PMC5641865, “A screen for kinase inhibitors identifies antimicrobial imidazopyridine aminofurazans as specific inhibitors of the Listeria monocytogenes PASTA kinase PrkA” (The Journal of Biological Chemistry, 2017).
Like-named read-outs stand apart in the source and are kept apart here.

Assays:
Format in all cases: biochemical
[1] = target: T1, PrkA kinase domain; PrkA(1-338) (Listeria monocytogenes, UniProt A0A0H3GI69); assay: Kinase-Glo ATP depletion assay
T1 construct: gene LMRG_00967; cytosolic kinase domain, residues 1-338, pGEX-2T GST fusion from E. coli Rosetta BL21, GST cut off with thrombin
T1 sequence (A0A0H3GI69 entry or part of it): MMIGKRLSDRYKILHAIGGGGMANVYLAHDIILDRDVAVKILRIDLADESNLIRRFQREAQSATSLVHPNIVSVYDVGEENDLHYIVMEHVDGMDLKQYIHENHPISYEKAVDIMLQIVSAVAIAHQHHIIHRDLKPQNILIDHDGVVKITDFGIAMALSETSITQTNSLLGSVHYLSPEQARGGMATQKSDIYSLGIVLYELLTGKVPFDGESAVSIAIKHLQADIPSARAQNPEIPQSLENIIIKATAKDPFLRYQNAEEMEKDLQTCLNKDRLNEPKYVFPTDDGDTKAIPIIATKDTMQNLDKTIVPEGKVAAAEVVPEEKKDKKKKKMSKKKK
Description: Kinase-Glo ATP depletion assay on PrkA kinase domain; PrkA(1-338)

Stk1 kinase domain [2] = target: T2, Stk1 kinase domain (Staphylococcus aureus, UniProt A0A0H2XGG5); assay: Kinase-Glo ATP depletion assay
T2 construct: gene pknB; cytosolic kinase domain, residues 1-348, pGEX-2T GST fusion from E. coli Rosetta BL21, GST cut off with thrombin; Mn2+ in place of Mg2+
T2 sequence (A0A0H2XGG5 entry or part of it): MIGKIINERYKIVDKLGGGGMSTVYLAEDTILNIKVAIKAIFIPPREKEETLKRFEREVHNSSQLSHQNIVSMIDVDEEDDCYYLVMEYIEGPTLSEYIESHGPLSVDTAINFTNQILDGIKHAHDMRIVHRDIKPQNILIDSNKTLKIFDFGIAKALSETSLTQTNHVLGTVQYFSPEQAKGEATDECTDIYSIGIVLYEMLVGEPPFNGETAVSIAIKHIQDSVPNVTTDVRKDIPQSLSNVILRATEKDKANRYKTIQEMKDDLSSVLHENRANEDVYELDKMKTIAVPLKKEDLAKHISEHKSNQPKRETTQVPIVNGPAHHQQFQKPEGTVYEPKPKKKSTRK

Stk1 kinase domain [3] = target: T2, Stk1 kinase domain; assay: kinase inhibition assay (supplement)
[4] = read-out: Relative IC50 (95% CI)

SMILES | IC50 [1, 4] [nM] | also measured
CCn1c(-c2nonc2N)nc2c(C#CC(C)(C)O)ncc(OCC3CCNCC3)c21 [GSK554170A] | 450 | –
CCn1c(-c2nonc2N)nc2c(C#CC(C)(C)O)ncc(OC[C@@H]3CCCN3)c21 [GSK614526A] | – | IC50 [1]: 420 nM
CCn1c(-c2nonc2N)nc2c(C#CC(C)(C)O)ncc(OC[C@H]3CCCNC3)c21 [GSK690693] | 840 | IC50 (Stk1 kinase domain [2]): > 40000 nM
CCn1c(-c2nonc2N)nc2c(C#CC(C)(C)O)nc(OCCN)cc21 [GSK902056A] | 410 | –
O=C1Nc2ccccc2C1=C1Nc2ccccc2C1=NO [indirubin-3′-monoxime] | – | kinase inhibition assay (supplement) (Stk1 kinase domain [3]): Stk1 can be biochemically inhibited by the kinase inhibitor indirubin-3′-monoxime
